Results taken from patent publication US8658642B2 (Axikin Pharmaceuticals, Inc., priority 2009, dated 2014).

The compounds below were run against T1, CCR3 (Homo sapiens, UniProt P51677) (assay: CCR3 receptor binding assay ([125I]-labeled human eotaxin/CCL11 displacement on cells)). Settings: 0.1 nM [125I]-labeled human eotaxin/CCL11, 2×10^5 cells/well, 60 min at room temperature.
T1 sequence (P51677 1-355): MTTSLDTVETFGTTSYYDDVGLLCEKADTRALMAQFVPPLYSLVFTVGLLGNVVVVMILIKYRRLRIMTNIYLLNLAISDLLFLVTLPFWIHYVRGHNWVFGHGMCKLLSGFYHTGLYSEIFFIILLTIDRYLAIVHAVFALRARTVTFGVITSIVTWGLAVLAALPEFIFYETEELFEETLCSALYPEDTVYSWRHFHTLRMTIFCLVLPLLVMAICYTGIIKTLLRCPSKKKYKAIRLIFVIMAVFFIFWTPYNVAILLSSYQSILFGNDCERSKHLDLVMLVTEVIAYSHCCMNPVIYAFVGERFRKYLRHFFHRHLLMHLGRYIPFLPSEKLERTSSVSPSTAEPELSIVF
Description: CCR3 Receptor Binding Assay
Cells were washed once with PBS and resuspended in a binding buffer (25 mM HEPES pH 7.6, 5 mM MgCl2, 1 mM CaCl2, 0.5% BSA, 0.1% NaN3). […] of cell suspension (2×10^5 cells/well) and 0.1 nM [^125I]-labeled human eotaxin/CCL11 (2000 Ci/mmol specific activity) were mixed in a 96-well U-bottom polypropylene plate, and incubated for 60 min at room temperature for the binding reaction. The cell suspension was then transferred to a filtration plate (#MAFB, Millipore), and washed 3 times with the binding buffer containing 0.5 M NaCl, scintillant added, and the radioactivity was counted on a TopCount (Packard). For the determination of non-specific binding, the cell suspension and [^125I]-labeled human eotaxin/CCL11 were incubated in the presence of 500 nM of unlabeled human eotaxin/CCL11. See, lino et al., “Molecular cloning and functional characterization of cynomolgus monkey (Macaca fascicularis) CC chemokine receptor, CCR3,” Cytokine 2002, 19, 276-286.

First: N#Cc1ccc(Oc2cc(Cl)cc(Cl)c2)c(S(=O)(=O)N2CCN(C(=O)c3ccccc3F)CC2)c1 [Compound 85, 4-(3,5-Dichlorophenoxy)-3-(4-(2-fluorobenzoyl)piperazin-1-ylsulfonyl)benzonitrile]
Second: N#Cc1ccc(Oc2cc(Cl)cc(Cl)c2)c(S(=O)(=O)N2CCN(C(=O)c3cccc(F)c3)CC2)c1 [Compound 86, 4-(3,5-Dichlorophenoxy)-3-(4-(3-fluorobenzoyl)piperazin-1-ylsulfonyl)benzonitrile]
The Ki of the first is lower: 500 to 5000 nM for the first, > 5000 nM for the second.

`N#Cc1ccc(Oc2cc(Cl)cc(Cl)c2)c(S(=O)(=O)N2CCN(C(=O)c3ccc(F)cc3)CC2)c1` [Compound 87, 4-(3,5-Dichlorophenoxy)-3-(4-(4-fluorobenzoyl)piperazin-1-ylsulfonyl)benzonitrile] and `N#Cc1ccc(Oc2cc(Cl)cc(Cl)c2)c(S(=O)(=O)N2CCN(C(=O)c3ccco3)CC2)c1` [Compound 122] cannot be ordered by Ki: > 5000 nM for the first, > 5000 nM for the second.

First: Cc1cc(C)cc(Sc2ccc(C#N)cc2S(=O)(=O)N2CCN(C(=O)c3ccc(C(F)(F)F)cc3)CC2)c1 [Compound 88, 4-(3,5-Dimethylphenylthio)-3-(4-(4-(trifluoromethyl)benzoyl)piperazin-1-ylsulfonyl)benzonitrile]
Second: Cc1ccc(C(=O)N2CCN(S(=O)(=O)c3cc(C#N)ccc3Sc3cc(C)cc(C)c3)CC2)cc1 [Compound 90, 4-(3,5-Dimethylphenylthio)-3-(4-(4-methylbenzoyl)piperazin-1-ylsulfonyl)benzonitrile]
The Ki of the first is higher: > 5000 nM for the first, 50 to 500 nM for the second.

`Cc1cc(C)cc(Sc2ccc(C#N)cc2S(=O)(=O)N2CCN(C(=O)c3ccccc3)CC2)c1` [Compound 89, 3-(4-Benzoylpiperazin-1-ylsulfonyl)-4-(3,5-dimethylphenylthio)benzonitrile] and `Cc1cc(C)cc(Sc2ccc(C#N)cc2S(=O)(=O)N2CCN(C(=O)c3cccc(C)c3)CC2)c1` [Compound 91, 4-(3,5-Dimethylphenylthio)-3-(4-(3-methylbenzoyl)piperazin-1-ylsulfonyl)benzonitrile] fall in the same range of Ki: 50 to 500 nM for the first, 50 to 500 nM for the second.

`Cc1cc(C)cc(Sc2ccc(C#N)cc2S(=O)(=O)N2CCN(C(=O)c3ccccc3C)CC2)c1` [Compound 92, 4-(3,5-Dimethylphenylthio)-3-(4-(2-methylbenzoyl)piperazin-1-ylsulfonyl)benzonitrile] and `Cc1ccccc1C(=O)N1CCN(S(=O)(=O)c2cc(C#N)ccc2Sc2cc(Cl)cc(Cl)c2)CC1` [Compound 106] cannot be ordered by Ki: > 5000 nM for the first, > 5000 nM for the second.

First: Cc1cc(C)cc(Sc2ccc(C#N)cc2S(=O)(=O)N2CCN(C(=O)Nc3cccc(F)c3)CC2)c1 [Compound 93]
Second: N#Cc1ccc(Sc2cc(Cl)cc(Cl)c2)c(S(=O)(=O)N2CCN(C(=O)c3cccc(F)c3)CC2)c1 [Compound 113]
The Ki of the first is lower: 50 to 500 nM for the first, > 5000 nM for the second. The first binds more tightly here.

`CC(C)NC(=S)N1CCN(S(=O)(=O)c2cc(C#N)ccc2Oc2cc(Cl)cc(Cl)c2)CC1` [Compound 95] and `CC(C)C(=O)N1CCN(S(=O)(=O)c2cc(C#N)ccc2Oc2cc(Cl)cc(Cl)c2)CC1` [Compound 110] cannot be ordered by Ki: 50 to 500 nM for the first, ≤ 50 nM for the second.

Compared with `N#Cc1ccc(Oc2cc(Cl)cc(Cl)c2)c(S(=O)(=O)N2CCN(C(=O)Oc3ccccc3)CC2)c1` [Compound 96], `N#Cc1ccc(Oc2cc(Cl)cc(Cl)c2)c(S(=O)(=O)N2CCN(C(=O)NCc3ccccc3)CC2)c1` [Compound 97] is lower in Ki: 500 to 5000 nM for the first, 50 to 500 nM for the second. The second binds more tightly here.

`N#Cc1ccc(Sc2cc(Cl)cc(Cl)c2)c(S(=O)(=O)N2CCN(C(=O)c3ccc(C(F)(F)F)cc3)CC2)c1` [Compound 98] and `Cc1ccc(C(=O)N2CCN(S(=O)(=O)c3cc(C#N)ccc3Sc3cc(Cl)cc(Cl)c3)CC2)cc1` [Compound 104] cannot be ordered by Ki: > 5000 nM for the first, > 5000 nM for the second.

`N#Cc1ccc(Sc2cc(Cl)cc(Cl)c2)c(S(=O)(=O)N2CCN(C(=O)c3ccccc3)CC2)c1` [Compound 99] and `Cc1cccc(C(=O)N2CCN(S(=O)(=O)c3cc(C#N)ccc3Sc3cc(Cl)cc(Cl)c3)CC2)c1` [Compound 105] cannot be ordered by Ki: > 5000 nM for the first, > 5000 nM for the second.

`CC(C)NC(=O)N1CCN(S(=O)(=O)c2cc(C#N)ccc2Sc2cc(Cl)cc(Cl)c2)CC1` [Compound 100] and `CC(C)NC(=S)N1CCN(S(=O)(=O)c2cc(C#N)ccc2Sc2cc(Cl)cc(Cl)c2)CC1` [Compound 101] cannot be ordered by Ki: > 5000 nM for the first, > 5000 nM for the second.

`Cc1cc(C)cc(Oc2ccc(C#N)cc2S(=O)(=O)N2CCN(C(=S)NC(C)C)CC2)c1` [Compound 103] and `Cc1cc(C)cc(Oc2ccc(C#N)cc2S(=O)(=O)N2CCN(C(=O)C(C)C)CC2)c1` [Compound 108] cannot be ordered by Ki: > 5000 nM for the first, > 5000 nM for the second.

`CC(=O)N1CCN(S(=O)(=O)c2cc(C#N)ccc2Oc2cc(C)cc(C)c2)CC1` [Compound 107] and `Cc1cc(C)cc(Oc2ccc(C#N)cc2S(=O)(=O)N2CCN(C(=S)N(C)C)CC2)c1` [Compound 121] cannot be ordered by Ki: > 5000 nM for the first, > 5000 nM for the second.

`CC(=O)N1CCN(S(=O)(=O)c2cc(C#N)ccc2Oc2cc(Cl)cc(Cl)c2)CC1` [Compound 109] and `N#Cc1ccc(Oc2cc(Cl)cc(Cl)c2)c(S(=O)(=O)N2CCN(C(N)=O)CC2)c1` [Compound 125] cannot be ordered by Ki: ≤ 50 nM for the first, ≤ 50 nM for the second.

Compared with `CC(=O)N1CCN(S(=O)(=O)c2cc(C#N)ccc2Sc2cc(Cl)cc(Cl)c2)CC1` [Compound 111], `CC(C)C(=O)N1CCN(S(=O)(=O)c2cc(C#N)ccc2Sc2cc(Cl)cc(Cl)c2)CC1` [Compound 112] is higher in Ki: ≤ 50 nM for the first, > 5000 nM for the second.

First: Cc1ccc(C(=O)N2CCN(S(=O)(=O)c3cc(C#N)ccc3Oc3cc(C)cc(C)c3)CC2)cc1 [Compound 114]
Second: COc1ccc(C(=O)N2CCN(S(=O)(=O)c3cc(C#N)ccc3Oc3cc(C)cc(C)c3)CC2)cc1 [Compound 117]
The Ki of the first is lower: 500 to 5000 nM for the first, > 5000 nM for the second. The first binds more tightly here.

`Cc1ccc(NC(=O)N2CCN(S(=O)(=O)c3cc(C#N)ccc3Oc3cc(C)cc(C)c3)CC2)cc1` [Compound 115] and `COc1ccc(NC(=O)N2CCN(S(=O)(=O)c3cc(C#N)ccc3Oc3cc(C)cc(C)c3)CC2)cc1` [Compound 118] cannot be ordered by Ki: > 5000 nM for the first, > 5000 nM for the second.

`Cc1cc(C)cc(Oc2ccc(C#N)cc2S(=O)(=O)N2CCN(C(=O)Nc3ccc(C#N)cc3)CC2)c1` [Compound 116] and `Cc1cc(C)cc(Oc2ccc(C#N)cc2S(=O)(=O)N2CCN(C(=O)Nc3ccc([N+](=O)[O-])cc3)CC2)c1` [Compound 119] cannot be ordered by Ki: > 5000 nM for the first, > 5000 nM for the second.

First: CCN(CC)C(=O)N1CCN(S(=O)(=O)c2cc(C#N)ccc2Oc2cc(C)cc(C)c2)CC1 [Compound 120]
Second: N#Cc1ccc(Oc2cc(Cl)cc(Cl)c2)c(S(=O)(=O)N2CCN(C(=O)CCCCl)CC2)c1 [Compound 141]
The Ki of the first is higher: > 5000 nM for the first, ≤ 50 nM for the second. The second binds more tightly here.

First: N#Cc1ccc(Oc2cc(Cl)cc(Cl)c2)c(S(=O)(=O)N2CCN(C(=O)c3cccs3)CC2)c1 [Compound 123]
Second: Cc1ccsc1C(=O)N1CCN(S(=O)(=O)c2cc(C#N)ccc2Oc2cc(Cl)cc(Cl)c2)CC1 [Compound 138]
The Ki of the first is higher: > 5000 nM for the first, 50 to 500 nM for the second. The second binds more tightly here.

First: N#Cc1ccc(Oc2cc(Cl)cc(Cl)c2)c(S(=O)(=O)N2CCN(C(=O)c3ccno3)CC2)c1 [Compound 124]
Second: N#Cc1ccc(Oc2cc(Cl)cc(Cl)c2)c(S(=O)(=O)N2CCN(C(=O)c3ccccn3)CC2)c1 [Compound 128]
The Ki of the first is lower: 50 to 500 nM for the first, 500 to 5000 nM for the second. The first binds more tightly here.

First: Cc1cc(C(=O)N2CCN(S(=O)(=O)c3cc(C#N)ccc3Oc3cc(Cl)cc(Cl)c3)CC2)n(C)n1 [Compound 126]
Second: Cc1nnsc1C(=O)N1CCN(S(=O)(=O)c2cc(C#N)ccc2Oc2cc(Cl)cc(Cl)c2)CC1 [Compound 127]
The Ki of the first is higher: > 5000 nM for the first, ≤ 50 nM for the second.

`N#Cc1ccc(Oc2cc(Cl)cc(Cl)c2)c(S(=O)(=O)N2CCN(C(=O)c3cc4ccccc4o3)CC2)c1` [Compound 129] and `N#Cc1ccc(Oc2cc(Cl)cc(Cl)c2)c(S(=O)(=O)N2CCN(C(=O)c3cc4ccccc4s3)CC2)c1` [Compound 131] cannot be ordered by Ki: > 5000 nM for the first, > 5000 nM for the second.

`N#Cc1ccc(Oc2cc(Cl)cc(Cl)c2)c(S(=O)(=O)N2CCN(C(=O)c3ccc4nonc4c3)CC2)c1` [Compound 130] and `N#Cc1ccc(Oc2cc(Cl)cc(Cl)c2)c(S(=O)(=O)N2CCN(C(=O)c3nc4ccccc4s3)CC2)c1` [Compound 132] cannot be ordered by Ki: > 5000 nM for the first, > 5000 nM for the second.

`N#Cc1ccc(Oc2cc(Cl)cc(Cl)c2)c(S(=O)(=O)N2CCN(C(=O)c3cnccn3)CC2)c1` [Compound 133] and `N#Cc1ccc(Oc2cc(Cl)cc(Cl)c2)c(S(=O)(=O)N2CCN(C(=O)NCCCl)CC2)c1` [Compound 142] fall in the same range of Ki: 50 to 500 nM for the first, 50 to 500 nM for the second.

`N#Cc1ccc(Oc2cc(Cl)cc(Cl)c2)c(S(=O)(=O)N2CCN(C(=O)N3CCOCC3)CC2)c1` [Compound 134] and `N#Cc1ccc(Oc2cc(Cl)cc(Cl)c2)c(S(=O)(=O)N2CCN(C(=S)NCCN3CCOCC3)CC2)c1` [Compound 137] fall in the same range of Ki: 50 to 500 nM for the first, 50 to 500 nM for the second.

`N#Cc1ccc(Oc2cc(Cl)cc(Cl)c2)c(S(=O)(=O)N2CCN(C(=O)NCc3ccco3)CC2)c1` [Compound 135] and `N#Cc1ccc(Oc2cc(Cl)cc(Cl)c2)c(S(=O)(=O)N2CCN(C(=S)NCc3ccco3)CC2)c1` [Compound 136] cannot be ordered by Ki: ≤ 50 nM for the first, ≤ 50 nM for the second.

`Cc1nnsc1C(=O)N1CCN(S(=O)(=O)c2cc(C#N)ccc2Sc2cc(Cl)cc(Cl)c2)CC1` [Compound 139] and `CC(=O)c1cccc(NC(=O)N2CCN(S(=O)(=O)c3cc(C#N)ccc3Oc3cc(Cl)cc(Cl)c3)CC2)c1` [Compound 140] cannot be ordered by Ki: ≤ 50 nM for the first, ≤ 50 nM for the second.
